This note sets out measurements from patent US11274106B2, “Topoisomerase inhibitors with antibacterial and anticancer activity” (THE BOARD OF TRUSTEES OF THE UNIVERSITY OF ILLINOIS, priority 2017, dated 2022).

Holding throughout (format): cell-based
One assay has as its system S. aureus. Briefly: Antibacterial MIC, microbroth dilution, S. aureus. How it is done: To investigate this possibility, the antibacterial effects of the DNM derivatives was assessed against strains of E. coli, S. aureus, and MRSA using the microbroth dilution method (Table 2).
The subject of another assay is IMR32. In words: Antiproliferative SRB assay, IMR32. To be noted: Homo sapiens, IMR-32, 72 h, Neuroblastoma, mean ± SEM. From the text:
(§1) Topoisomerase inhibitors such as DOX are used as single agent and in combination therapy to treat a wide-range of cancer types.
For orientation: The SRB assay estimates cell density from bound dye.

Another assay deals with T1, Top1 (Homo sapiens, UniProt P11387).
T1 sequence (P11387 1-765): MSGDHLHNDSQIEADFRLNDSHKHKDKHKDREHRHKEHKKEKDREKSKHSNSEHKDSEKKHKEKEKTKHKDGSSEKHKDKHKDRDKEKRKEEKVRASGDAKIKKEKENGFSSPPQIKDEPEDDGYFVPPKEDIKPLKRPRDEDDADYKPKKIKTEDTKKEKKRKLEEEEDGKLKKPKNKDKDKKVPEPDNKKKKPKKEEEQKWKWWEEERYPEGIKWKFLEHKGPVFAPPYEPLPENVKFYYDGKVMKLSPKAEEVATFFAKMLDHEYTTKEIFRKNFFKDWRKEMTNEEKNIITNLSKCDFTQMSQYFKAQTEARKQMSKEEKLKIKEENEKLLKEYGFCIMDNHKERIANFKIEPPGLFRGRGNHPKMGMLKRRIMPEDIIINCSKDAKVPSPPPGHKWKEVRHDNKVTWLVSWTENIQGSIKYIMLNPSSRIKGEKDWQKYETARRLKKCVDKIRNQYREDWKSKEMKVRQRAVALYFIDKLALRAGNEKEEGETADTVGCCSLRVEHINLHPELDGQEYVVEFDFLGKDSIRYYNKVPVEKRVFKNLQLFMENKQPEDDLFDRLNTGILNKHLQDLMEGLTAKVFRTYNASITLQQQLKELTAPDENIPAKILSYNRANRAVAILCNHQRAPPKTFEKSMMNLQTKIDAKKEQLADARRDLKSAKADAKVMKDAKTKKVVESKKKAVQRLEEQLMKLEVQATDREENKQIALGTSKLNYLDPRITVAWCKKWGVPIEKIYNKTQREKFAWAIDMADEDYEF
Briefly: Top1 degradation by Western blot, BT-474. The conditions noted are these: 50 μM for 2, 4, and 6 hours, then 30-minute drug-free media. How it is done:
FIG. 4. Level of Top1-degradation predicts cell line sensitivity. (a) Cells treated with 25 μM of compound for indicated times followed by a 30 minute incubation with drug-free media. Cells were lysed with RIPA and Top1 levels assessed by Western Blot. (b) Degradation of Top1 results in a right-ward shift in the dose-response curve. Effect is most pronounced in Top1-poisons (Ph-6DNM-NH3, CPT) than Top1 catalytic inhibitor (6DNM-Pyr). Cell death measured by SRB assay after 72 hour of compound exposure (n≥3 biological replicates, error bars show SEM).
This difference in mechanism of action between Ph-6DNM-NH3 and 6DNM-Pyr may provide an explanation of the differences in cell line sensitivities between the different DNM derivatives. […] This downregulation serves as a resistance mechanism and the level of Top1 degradation is correlated with reduced sensitivity to CPT. To determine if a similar mechanism is responsible for the reduced sensitivity to Ph-6DNM-NH3 and its derivatives in certain cell lines, the effects of Ph-6DNM-NH3 and 6DNM-Pyr were compared to that of CPT in […] and BT-474, two cancer cell lines known to be deficient and proficient in Top1 degradation, respectively. Cells were treated with 50 μM Ph-6DNM-NH3, 6DNM-Pyr, or CPT for 2, 4, and 6 hours. Following a 30-minute incubation with drug-free media to allow for the reversal of any Top1cc formed, cells were lysed and Top1 concentrations assessed by Western blot (FIG. 4a).
Background: A western blot detects proteins with antibodies after separation by electrophoresis.

Another assay concerns the target T2, Top2cc (Homo sapiens, UniProt P11388).
T2 construct: endogenous in cells; host or cells: H460
In words: ICE assay for Top2α-DNA complexes in H460 cells. To be noted: for Accumulation of Top2cc (ICE assay): 50 μM; for Effect on ETP-induced Top2cc: pre-treatment 30 minutes prior to ETP (50 μM). From the text:
FIG. 3. DNM derivatives are dual Top1/Top2 inhibitors with different modes of inhibition. (a) Inhibition of decatenating ability of Top2α with increasing concentrations of ETP, 6DNM-NH3, 6DNM-Pyr, and Ph-6DNM-NH3. K, kinetoplast DNA; OC, open circular; R, relaxed. (b) Inhibition of relaxing ability of Top1 with increasing concentrations of CPT, 6DNM-NH3, 6DNM-Pyr, and Ph-6DNM-NH3. R, relaxed; S, supercoiled. (c) Detection of Top2a-DNA using the ICE Assay. Genomic DNA ([…]) of H460 cells treated with drugs (50 μM, 30 min) was applied to nitrocellulose membrane and immunoblotted for Top2a. (d) Detection of Top1-DNA adducts using ICE Assay. Same procedure as (c) using 1 μg of DNA. (e) Inhibition of ETP-induced poisoning of Top2a. H460 cells treated with indicated concentrations of inhibitor for 30 min prior to treatment with ETP (50 μM). Detection of Top2α as in (c).
The in vivo complex of enzyme (ICE) assay can be used to distinguish poisons from catalytic inhibitors. The ICE assay consists of isolating the genomic DNA of cells treated with small molecules in a manner the preserves covalent DNA-protein complexes and applying it to nitrocellulose membranes. Because topoisomerase poisons stabilize the cleavage complexes, DNA-protein complexes can be detected by immunoblotting for specific topoisomerases, whereas catalytic inhibitors produce no such result. To determine if DNM derivatives are acting as poisons or catalytic inhibitors, H460 human lung cells were exposed to 50 μM of the Top2 poison ETP, Ph-6DNM-NH3, 6DNM-NH3, and 6DNM-Pyr and assessed for their ability to stabilize Top2cc. […] In a similar fashion, next investigated was the mode of Top1 inhibition using the ICE assay (FIG. 3b).

The next assay concerns H460. Briefly: Antiproliferative SRB assay, H460. The conditions noted are these: Homo sapiens, NCI-H460, 72 h, Lung cancer, mean ± SEM.
Source text: as §1

The next assay relates to HCT-116. In words: Antiproliferative SRB assay, HCT-116. The conditions noted are these: Homo sapiens, HCT-116, 72 h, Colon cancer, mean ± SEM.
Source text: as §1

The next assay concerns HL-60. In words: Cell viability Alamar Blue assay, HL-60. To be noted: Homo sapiens, HL-60, 72 h, Leukemia, mean ± SEM.
Source text: as §1
(The colour change of resazurin is a common sign of viable cells or microbes.)

The next assay has as its system HeLa. Briefly: Antiproliferative SRB assay, HeLa. The conditions noted are these: Homo sapiens, 72 h, Ovarian cancer (footnote e), mean ± SEM.
Source text: as §1

In brackets after ≈: the same amount, converted by molar mass.

T2 sequence (P11388 whole entry): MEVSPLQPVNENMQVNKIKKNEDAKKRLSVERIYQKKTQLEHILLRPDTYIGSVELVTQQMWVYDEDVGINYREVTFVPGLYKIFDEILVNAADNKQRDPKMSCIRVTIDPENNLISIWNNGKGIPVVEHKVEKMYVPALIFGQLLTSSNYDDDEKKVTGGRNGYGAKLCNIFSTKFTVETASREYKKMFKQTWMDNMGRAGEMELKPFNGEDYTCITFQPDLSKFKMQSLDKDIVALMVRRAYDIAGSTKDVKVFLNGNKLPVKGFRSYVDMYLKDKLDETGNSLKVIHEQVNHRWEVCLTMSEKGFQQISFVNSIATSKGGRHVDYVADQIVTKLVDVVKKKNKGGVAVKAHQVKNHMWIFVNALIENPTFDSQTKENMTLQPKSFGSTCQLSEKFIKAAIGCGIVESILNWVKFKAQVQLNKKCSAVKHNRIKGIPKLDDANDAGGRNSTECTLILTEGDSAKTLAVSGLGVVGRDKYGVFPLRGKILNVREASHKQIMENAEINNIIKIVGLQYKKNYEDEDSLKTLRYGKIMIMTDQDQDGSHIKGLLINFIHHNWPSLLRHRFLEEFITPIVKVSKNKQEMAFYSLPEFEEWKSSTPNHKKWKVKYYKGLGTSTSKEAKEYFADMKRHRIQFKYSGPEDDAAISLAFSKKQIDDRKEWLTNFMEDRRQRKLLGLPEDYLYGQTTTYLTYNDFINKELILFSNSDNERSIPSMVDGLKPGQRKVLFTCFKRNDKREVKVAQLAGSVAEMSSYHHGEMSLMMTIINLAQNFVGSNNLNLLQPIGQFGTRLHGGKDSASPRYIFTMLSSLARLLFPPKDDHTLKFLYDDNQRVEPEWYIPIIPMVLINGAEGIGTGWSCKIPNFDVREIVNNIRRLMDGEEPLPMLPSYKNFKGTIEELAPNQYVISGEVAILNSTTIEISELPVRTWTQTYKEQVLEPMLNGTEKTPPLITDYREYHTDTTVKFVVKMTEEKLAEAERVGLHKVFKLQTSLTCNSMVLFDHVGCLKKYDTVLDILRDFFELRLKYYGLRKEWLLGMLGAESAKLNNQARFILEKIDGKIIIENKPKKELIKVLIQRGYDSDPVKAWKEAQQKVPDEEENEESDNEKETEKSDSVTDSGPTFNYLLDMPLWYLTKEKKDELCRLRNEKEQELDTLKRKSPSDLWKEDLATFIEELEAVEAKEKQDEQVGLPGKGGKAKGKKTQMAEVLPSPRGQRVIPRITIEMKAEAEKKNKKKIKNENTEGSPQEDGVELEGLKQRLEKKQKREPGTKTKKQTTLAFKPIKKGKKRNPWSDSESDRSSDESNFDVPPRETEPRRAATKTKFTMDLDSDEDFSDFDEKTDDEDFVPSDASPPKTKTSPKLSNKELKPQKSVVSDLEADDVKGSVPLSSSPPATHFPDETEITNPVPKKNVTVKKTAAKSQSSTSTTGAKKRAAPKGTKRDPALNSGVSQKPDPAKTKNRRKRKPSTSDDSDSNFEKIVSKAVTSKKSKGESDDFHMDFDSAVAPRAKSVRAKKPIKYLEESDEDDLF

`Cc1cc(=O)n(C)c2c3c4c(cc12)c(C)cc(=O)n4C(CN1CCCC1)CO3` (stereo not drawn) [Compound 20] yielded an MIC against S. aureus (Staphylococcus aureus) of 0.5 µg/mL (≈ 1.32 µM). Further, the IC50 with IMR32 is 4.4 ± 0.3 nM; in the assay on H460, 6.6 ± 0.5 nM; in the assay with HCT-116, 9 ± 1 nM; in the assay with HL-60 it was 48 ± 11 nM; with HeLa, 27 ± 1 nM. Moreover, at Top1, the “Top1 levels by Western blot in BT-474” value is “minimal effect”. At Top2cc, the “Accumulation of Top2cc (ICE assay)” value is “only ETP treatment resulted in the accumulation of Top2cc”. Moreover, the “Effect on ETP-induced Top2cc” value at Top2cc is given as “dose-dependent decrease in ETP-induced Top2cc”.
As to `Cc1cc(=O)n2c3c(c4c(cc13)c1ccccc1c(=O)n4C)OCC2CN` (stereo not drawn) [Compound 15], in the assay with S. aureus, the “S. aureus MIC” value came out at 1 µg/mL. Also, the IC50 with IMR32 was 8.6 ± 0.1 nM; in the assay on H460, 12 ± 2 nM; in the assay on HCT-116, 37 ± 13 nM; with HL-60 it was 470 ± 90 nM; with HeLa, 56 ± 5 nM. Besides, on Top1, the “Top1 levels by Western blot in BT-474” value was “time-dependent decrease in the levels of Top1”. The “Accumulation of Top2cc (ICE assay)” value at Top2cc was “only ETP treatment resulted in the accumulation of Top2cc”. In addition, on Top2cc, the “Effect on ETP-induced Top2cc” value is recorded as “dose-dependent decrease in ETP-induced Top2cc”.

Usually MIC stands for the smallest concentration in the dilution series that meets the test's criterion for growth inhibition. Usually IC50 stands for the concentration needed to halve the response being measured.
